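In this assay, cells in 96-well plates receive the compound at five concentrations for 48 hours. Endpoints are linearly interpolated between the surrounding concentrations. Here, GI50 denotes the concentration required for 50% inhibition of growth.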 Active and inactive are the calls of the source. Rule as the data show it: active = GI50 up to about 1.1 µM and inactive = higher.
Tests used:
Experiment in all cases: NCI tumour cell line growth inhibition, 48 h
SK-MEL-2 = tested on: SK-MEL-2
HOP-62 = tested on: HOP-62
SF-539 = tested on: SF-539
SK-OV-3 = tested on: SK-OV-3
HT-29 = tested on: HT-29
U-251 = tested on: U-251
HOP-92 = tested on: HOP-92
KM12 = tested on: KM12
A498 = tested on: A498
786-0 = tested on: 786-0
NCI-H23 = tested on: NCI-H23
ACHN = tested on: ACHN
IGROV-1 = tested on: IGROV-1
SW-620 = tested on: SW-620
OVCAR-5 = tested on: OVCAR-5
OVCAR-8 = tested on: OVCAR-8
HL-60 = tested on: HL-60

Measured: GI50

Cc1cccc(C(C)C)c1NC(=O)C(=O)C(C(=O)c1ccccc1F)C1OC(=O)c2ccccc21 (centres undefined)
inactive: SK-MEL-2 15.7 µM | HOP-62 15.8 µM | SF-539 8.28 µM | SK-OV-3 18.9 µM | HT-29 29.6 µM | U-251 7.16 µM | HOP-92 23.4 µM | KM12 19.2 µM | A498 23.7 µM | 786-0 15.7 µM | NCI-H23 15 µM | ACHN 36.4 µM | IGROV-1 24.8 µM | SW-620 24.5 µM | OVCAR-5 40 µM | OVCAR-8 16.5 µM

CCOC(=O)/C(=C\c1ccc(N(CCC#N)CCC#N)cc1C)NC(=O)/C=C/c1ccccc1
inactive: SK-MEL-2 > 100 µM | HOP-62 > 100 µM | SF-539 > 100 µM | SK-OV-3 > 100 µM | HT-29 > 100 µM | U-251 > 100 µM | KM12 > 100 µM | A498 > 100 µM | 786-0 > 100 µM | NCI-H23 > 100 µM | ACHN > 100 µM | HL-60 > 100 µM | IGROV-1 > 100 µM | SW-620 > 100 µM | OVCAR-5 > 100 µM | OVCAR-8 > 100 µM

CC(C)(C)/N=C\N(C=C(c1ccccc1)c1ccccc1)C1CCCCC1
inactive: SK-MEL-2 60.8 µM | HOP-62 > 100 µM | SF-539 50.5 µM | HT-29 25.9 µM | U-251 32.1 µM | HOP-92 17.9 µM | KM12 36.2 µM | A498 23.3 µM | 786-0 82.4 µM | NCI-H23 40.3 µM | ACHN 36.4 µM | IGROV-1 50.9 µM | SW-620 36.3 µM | OVCAR-5 35.1 µM | OVCAR-8 91.8 µM

CC(C)=CC(=O)CC(=O)C(=O)Nc1ccc(Cl)c(Cl)c1
inactive: SK-MEL-2 > 100 µM | HOP-62 > 100 µM | SF-539 > 100 µM | SK-OV-3 > 100 µM | HT-29 > 100 µM | U-251 > 100 µM | KM12 > 100 µM | A498 > 100 µM | 786-0 > 100 µM | NCI-H23 > 100 µM | ACHN > 100 µM | HL-60 > 100 µM | IGROV-1 > 100 µM | SW-620 > 100 µM | OVCAR-5 > 100 µM | OVCAR-8 > 100 µM

CCOC(=O)CC(NC(=O)c1nc[nH]c1/N=N/N(C)C)C(=O)OCC (centres undefined)
inactive: SK-MEL-2 > 100 µM | HOP-62 > 100 µM | SF-539 > 100 µM | SK-OV-3 > 100 µM | HT-29 > 100 µM | U-251 > 100 µM | KM12 > 100 µM | A498 > 100 µM | 786-0 > 100 µM | NCI-H23 > 100 µM | ACHN > 100 µM | HL-60 > 100 µM | IGROV-1 > 100 µM | SW-620 > 100 µM | OVCAR-5 > 100 µM | OVCAR-8 > 100 µM

Reference: ChEMBL document CHEMBL1201862, “PubChem BioAssay data set” (2004)
